Assay results as given in publication PMC4990313, “Biocatalytic Asymmetric Alkene Reduction: Crystal Structure and Characterization of a Double Bond Reductase from Nicotiana tabacum” (ACS Catalysis, 2013).
Values belong to the compound of their own block, whether it stands above or below them.

How the values were obtained:
[1] = molecular target: T1, NtDBR (double bond reductase) (Nicotiana tabacum, UniProt Q9SLN8); experiment: steady-state kinetics, NADPH oxidation; biotransformation with GC; format: biochemical
T1 construct: gene DBR; full-length, C-terminal His6-tag
T1 sequence (Q9SLN8 whole entry): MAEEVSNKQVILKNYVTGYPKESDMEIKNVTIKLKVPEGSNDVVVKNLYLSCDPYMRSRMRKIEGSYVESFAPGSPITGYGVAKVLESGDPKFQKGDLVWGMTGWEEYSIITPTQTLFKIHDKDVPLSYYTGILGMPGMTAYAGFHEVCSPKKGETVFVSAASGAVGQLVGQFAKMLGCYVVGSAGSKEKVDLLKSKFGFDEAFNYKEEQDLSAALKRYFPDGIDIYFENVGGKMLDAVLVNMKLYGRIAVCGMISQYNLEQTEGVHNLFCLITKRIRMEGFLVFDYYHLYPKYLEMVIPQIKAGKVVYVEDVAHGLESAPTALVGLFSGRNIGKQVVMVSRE

[2] = molecular target: T1, NtDBR (double bond reductase); experiment: X-ray crystal structure (ternary complex, soak); format: binding
[3] = molecular target: T1, NtDBR (double bond reductase); experiment: steady-state kinetics, NADPH oxidation; rate at pH […]; format: biochemical
[4] = molecular target: T1, NtDBR (double bond reductase); experiment: steady-state kinetics, NADPH oxidation; substrate inhibition at pH […]; format: biochemical
[5] = molecular target: T1, NtDBR (double bond reductase); experiment: X-ray crystal structure (binary complex, NADPH soak); steady-state kinetics; format: binding
[6] = molecular target: T1, NtDBR (double bond reductase); experiment: steady-state kinetics, NADPH oxidation; kcat/Km at pH […]; format: biochemical
[7] = molecular target: T1, NtDBR (double bond reductase); experiment: X-ray crystal structure (ternary complex, soak); some reduction in biotransformation; format: binding

SMILES: O=[N+]([O-])C1=CCCCC1 [1a, 1-nitrocyclohexene]
- steady-state kinetics, NADPH oxidation; biotransformation with GC [1]: NtDBR shows a high preference for 1-nitrocyclohexene (1a) over typical LTD alkenal/one substrates

SMILES: NC(=O)c1ccc[n+]([C@@H]2O[C@H](COP(=O)(O)OP(=O)(O)OC[C@H]3O[C@@H](n4cnc5c(N)ncnc54)[C@H](OP(=O)(O)O)[C@@H]3O)[C@@H](O)[C@H]2O)c1 [NADP^+]
- X-ray crystal structure (ternary complex, soak) [2]: showed clear |Fo| – |Fc| electron density for the presence of NADP^+ and a second ligand in subunit A only

- steady-state kinetics, NADPH oxidation; rate at pH 7.3 [3]: 0.52 ± 0.03 s^–1
SMILES: C=CC(=O)CCCCC [5a, 1-octen-3-one]

- steady-state kinetics, NADPH oxidation; rate at pH 7.3 [3]: 0.87 ± 0.07 s^–1
SMILES: CCCCCC/C=C/C=O [4a, trans-2-nonenal]

- Ki [4]: 2600 ± 600 µM
SMILES: CCC=C(C)C=O [2a, 2-methylpentenal]

SMILES: NC(=O)C1=CN([C@@H]2O[C@H](COP(=O)(O)OP(=O)(O)OC[C@H]3O[C@@H](n4cnc5c(N)ncnc54)[C@H](OP(=O)(O)O)[C@@H]3O)[C@@H](O)[C@H]2O)C=CC1 [NADPH]
- X-ray crystal structure (binary complex, NADPH soak); steady-state kinetics [5]: Both the binary and ternary crystal structures showed clear |Fo| – |Fc| electron density for the NADP(H)

SMILES: O=C/C=C/c1ccccc1 [6a, trans-cinnamaldehyde]
- steady-state kinetics, NADPH oxidation; kcat/Km at pH 5.4 [6]: 2.8

SMILES: COc1cc(C=CC=O)ccc1O [9a, 4-hydroxy-3-methoxycinnamaldehyde]
- X-ray crystal structure (ternary complex, soak); some reduction in biotransforma [7]: have modeled in HMCA because this was the compound soaked into the crystals
